# Measured values as given in patent US4933347A, “Diamidines and bis(imidazolines) for the treatment of and prophylaxis against pneumocystis carinii pneumonia” (University of North Carolina at Chapel Hill, priority 1988, dated 1990).
# Tested on: Pneumocystis carinii
# Assay: Treatment of Pneumocystis carinii pneumonia in Sprague-Dawley rats (extent of disease by histologic score)
# Assay type: in vivo, male Sprague-Dawley rats
# Conditions: for Extent of Disease by Histologic Score: number of animals with score 0.5 / Extent of disease by histologic score (combined): number of animals in scoring group 0.5: 0.5 = <10 cysts found per 2 sections; for Extent of disease by histologic score (combined): number of animals in scoring group 0.5 / Extent of disease by histologic score (combined): number of animals in scoring group 1 / Extent of disease by histologic score (combined): number of animals in scoring group 2 / Extent of disease by histologic score (combined): number of animals in scoring group 3 / Extent of disease by histologic score (combined): number of animals in scoring group 4: Table XII composite; for Extent of disease by histologic score (combined): number of animals in scoring group 2: 5-10% of lung involved
# Method: Induction and Treatment Of Pneumocystis Carinii in Sprague-Dawley Rats
# Male Sprague-Dawley rats, barrier raised, non-certified virus free, weighing 150-200g were obtained from Hilltop Laboratories and housed individually. Animals were begun on a low (8%) protein diet (ICN Biomedicals, Cincinnati, OH) and drinking water containing tetracycline (0.5 mg/ml) and dexamethasone (1.0 μg/ml) immediately upon arrival. This treatment was given for the next 8 weeks, monitoring fluid intake daily and weighing animals weekly. Dilutions of the drinking solution were made when animals consumed too much fluid so as to prevent cortisone poisoning. At the beginning of the sixth week, animals were divided into groups of 8 animals each and the test compounds were administered daily by i.v. injection at a dose of 10 mg/kg, unless otherwise noted, for the next 14 days.
# Animals were sacrificed at the end of the eighth week by chloroform inhalation and the left lung was removed aseptically and placed in sterile Hank's balanced salts solution without calcium or magnesium (HBSS-) for the ground tissue procedure. The right lung was inflated in situ with 10% […] and removed for histologic examination GMS staining. […]
# [1] = 10 mg/kg unless otherwise noted
# [2] = 10 mg/kg i.v. daily, 14 days, 1 = scattered cysts, <5% of lung involved
# [3] = 10 mg/kg i.v. daily, 14 days, 2 = scattered cysts, 5-10% lung involved or small foci of infection
# [4] = 10 mg/kg i.v. daily, 14 days, 3 = scattered cysts, 10-50% of lung involved with some intense areas of infection
# [5] = 10 mg/kg i.v. daily, 14 days, 4 = >50% of lung involved with many intense areas of focal infection
# [6] = 10 mg/kg, 1 = scattered cysts, <5% of lung involved
# [7] = 10 mg/kg, 3 = scattered cysts, 10-50% of lung involved
# [8] = 10 mg/kg, 4 = >50% of lung involved
SMILES,Efficacy in treating PCP compared with pentamidine [1],"Extent of Disease by Histologic Score: number of animals with score 0.5 (10 mg/kg i.v. daily, 14 days) [animals]",Extent of Disease by Histologic Score: number of animals with score 1 [2] [animals],Extent of Disease by Histologic Score: number of animals with score 2 [3] [animals],Extent of Disease by Histologic Score: number of animals with score 3 [4] [animals],Extent of Disease by Histologic Score: number of animals with score 4 [5] [animals],Extent of disease by histologic score (combined): number of animals in scoring group 0.5 (10 mg/kg) [animals],Extent of disease by histologic score (combined): number of animals in scoring group 1 [6] [animals],"Extent of disease by histologic score (combined): number of animals in scoring group 2 (10 mg/kg, 2 = scattered cysts) [animals]",Extent of disease by histologic score (combined): number of animals in scoring group 3 [7] [animals],Extent of disease by histologic score (combined): number of animals in scoring group 4 [8] [animals],also measured
COc1cc(C(=N)N)ccc1OCCCCCOc1ccc(C(=N)N)cc1OC [Example 15],improved performance in treating pcp,–,–,–,–,–,–,–,–,–,–,"Extent of Disease by Histologic Score: number of animals with score 0.5 (5 mg/kg i.v. daily, 14 days): 0 animals; Extent of Disease by Histologic Score: number of animals with score 1 (5 mg/kg i.v. daily, 14 days, 1 = scattered cysts, <5% of lung involved): 3 animals; Extent of Disease by Histologic Score: number of animals with score 2 (5 mg/kg i.v. daily, 14 days, 2 = scattered cysts, 5-10% lung involved or small foci of infection): 4 animals; Extent of Disease by Histologic Score: number of animals with score 3 (5 mg/kg i.v. daily, 14 days, 3 = scattered cysts, 10-50% of lung involved with some intense areas of infection): 1 animals; Extent of Disease by Histologic Score: number of animals with score 4 (5 mg/kg i.v. daily, 14 days, 4 = >50% of lung involved with many intense areas of focal infection): 0 animals; Extent of Disease by Histologic Score: number of animals with score 0.5 (Table III, Example 15 (Table XII footnote d: 2.5 mg/kg)): 2 animals; Extent of Disease by Histologic Score: number of animals with score 1 (Table III, Example 15 (Table XII footnote d: 2.5 mg/kg), 1 = <5% of lung involved): 1 animals; Extent of Disease by Histologic Score: number of animals with score 2 (Table III, Example 15 (Table XII footnote d: 2.5 mg/kg), 2 = 5-10% lung involved): 3 animals; Extent of Disease by Histologic Score: number of animals with score 3 (Table III, Example 15 (Table XII footnote d: 2.5 mg/kg), 3 = 10-50% of lung involved): 0 animals; Extent of Disease by Histologic Score: number of animals with score 4 (Table III, Example 15 (Table XII footnote d: 2.5 mg/kg), 4 = >50% of lung involved): 0 animals; Extent of disease by histologic score (combined): number of animals in scoring group 0.5 (tested at 2.5 mg/kg): 2 animals; Extent of disease by histologic score (combined): number of animals in scoring group 1 (tested at 2.5 mg/kg, 1 = scattered cysts, <5% of lung involved): 4 animals; Extent of disease by histologic score (combined): number of animals in scoring group 2 (tested at 2.5 mg/kg, 2 = scattered cysts): 7 animals; Extent of disease by histologic score (combined): number of animals in scoring group 3 (tested at 2.5 mg/kg, 3 = scattered cysts, 10-50% of lung involved): 1 animals; Extent of disease by histologic score (combined): number of animals in scoring group 4 (tested at 2.5 mg/kg, 4 = >50% of lung involved): 0 animals; Efficacy in treating PCP compared with control (compound at 5 mg/kg): significantly better, at one half the dose, than the control"
N=C(N)c1ccc(NCCCCCNc2ccc(C(=N)N)cc2N)c(N)c1 [Example 19],not as good as pentamidine in controlling pcp,0,2,4,2,0,3,2,3,0,0,Efficacy in treating PCP compared with control [1]: better than the control
"N=C(N)c1ccc(OCCCCCCOc2ccc(C(=N)N)cc2)cc1 [Example 20, hexamidine, reference compound]",improved performance in treating pcp,3,3,1,0,0,3,3,1,0,0,–
N=C(N)c1ccc(OCCCCCCOc2ccc(C(=N)N)cc2[N+](=O)[O-])c([N+](=O)[O-])c1 [Example 21],–,–,–,–,–,–,–,–,–,–,–,"Extent of Disease by Histologic Score: number of animals with score 0.5 (1.25 mg/kg (dose from Table XII footnote e)): 4 animals; Extent of Disease by Histologic Score: number of animals with score 1 (1.25 mg/kg (dose from Table XII footnote e), 1 = scattered cysts, <5% of lung involved): 1 animals; Extent of Disease by Histologic Score: number of animals with score 2 (1.25 mg/kg (dose from Table XII footnote e), 2 = scattered cysts, 5-10% lung involved or small foci of infection): 1 animals; Extent of Disease by Histologic Score: number of animals with score 3 (1.25 mg/kg (dose from Table XII footnote e), 3 = scattered cysts, 10-50% of lung involved): 0 animals; Extent of Disease by Histologic Score: number of animals with score 4 (1.25 mg/kg (dose from Table XII footnote e), 4 = >50% of lung involved): 0 animals; Extent of disease by histologic score (combined): number of animals in scoring group 0.5 (tested at 1.25 mg/kg): 4 animals; Extent of disease by histologic score (combined): number of animals in scoring group 1 (tested at 1.25 mg/kg, 1 = scattered cysts, <5% of lung involved): 1 animals; Extent of disease by histologic score (combined): number of animals in scoring group 2 (tested at 1.25 mg/kg, 2 = scattered cysts): 1 animals; Extent of disease by histologic score (combined): number of animals in scoring group 3 (tested at 1.25 mg/kg, 3 = scattered cysts, 10-50% of lung involved): 0 animals; Extent of disease by histologic score (combined): number of animals in scoring group 4 (tested at 1.25 mg/kg, 4 = >50% of lung involved): 0 animals"
N=C(N)c1ccc(NCCCCCCNc2ccc(C(=N)N)cc2N)c(N)c1 [Example 23],–,3,1,2,0,1,3,1,2,0,1,–
N=C(N)c1cccc(OCCCOc2cccc(C(=N)N)c2)c1 [Example 26],–,2,1,4,1,0,2,1,4,1,0,–
N=C(N)c1cccc(OCCCCOc2cccc(C(=N)N)c2)c1 [Example 27],–,2,1,1,3,0,2,1,1,3,0,–
N=C(N)c1cccc(OCCCCCOc2cccc(C(=N)N)c2)c1 [Example 28],–,–,–,–,–,–,4,3,6,2,1,–
N=C(N)c1cccc(OCCCCCCOc2cccc(C(=N)N)c2)c1 [Example 29],–,1,4,1,2,0,1,4,1,2,0,–
